These results are taken from publication PMC5118230, “Effects of acetaminophen on mitochondrial complex I activity in the rat liver and kidney: a PET study with ^18F-BCPP-BF” (EJNMMI Research, 2016).

Details of data set [1]: method as in PMID 24285187, PMID 24470629. As to conditions: pH 7.4; cited from earlier work.
The target of data set [2] is MC-I. Set-up: method as in PMID 24285187, PMID 24470629. As to conditions: affinity to MC-I; cited from earlier work.
Data set [3] relates to mitochondrial complex I (MC-I). On the set-up: method as in PMID 24470629. As to conditions: with time, significant at the later phase of 60 min after injection; cited from earlier work.
The test system of data set [4] is mitochondrial complex I (MC-I). Kind of data set: PET kinetics and distribution of 18F-BCPP-BF in rat abdominal organs. It counts as in vivo. As for the experimental part: (§1) Four animals per group were used for PET imaging.
(§2) Rats anesthetized by 1.5–2.0% isoflurane in O2 were positioned prone on a fixation plate and placed in the gantry hole of the PET scanner (SHR-7700, Hamamatsu Photonics, Hamamatsu, Japan). After a transmission scan for 15 min using a ^68Ge-^68Ga rotation rod source, ^18F-BCPP-BF at ca. 15 MBq was intravenously injected into each rat via the tail vein, and this was followed by an emission scan with list mode data acquisition (every 1 ms) for 90 min. The body temperature of each animal was monitored to record throughout the study using a Thermo-Hygro Recorder (TR-72Ui, T&D Corporation, Matsumoto, Japan).
(§3) The PET data obtained were reconstructed by Dynamic RAMLA (DRAMA) method with a Gauss filter of 1.0-mm FWHM and attenuation correction using the transmission scan data. Dynamic images every 2 min for the time activity curve (TAC) as well as summation images in the early (from 15 to 30 min after ^18F-BCPP-BF injection) and late (from 70 to 90 min) phases were reconstructed. Since there were no information on the TACs of ^18F-BCPP-BF in the liver and kidney, we conducted PET data acquisition up to 90 min after the injection.
(§4) Standard uptake value (SUV) images were created as follows: SUV=CTWs/Dinj
(§5) where C T is the tissue radioactivity (Bq/mL) obtained from PET images, W s is the body weight (g) of the rat being examined, and D inj is the injected dose (Bq) of ^18F-BCPP-BF. Each summation SUV image was superimposed on the corresponding X-CT images obtained using ClairvivoCT (Shimadzu Corporation, Kyoto, Japan). Volumes of interest (VOIs) were selected on summation images of the kidney (renal cortex and pelvis) and liver in the early (from 15 to 30 min) and late (from 70 to 90 min) phases and TACs were obtained from dynamic image data in each organ as SUV by setting the early phase VOIs.

Data set [5] relates to mitochondrial complex I (MC-I). Kind of data set: effects of acetaminophen on MC-I activity (18F-BCPP-BF uptake, PET). It counts as in vivo, rat. As for the experimental part: In order to evaluate the acute effects of acetaminophen, vehicle or acetaminophen at a dose of 100 or 300 mg/kg in 10 mL/kg of vehicle (saline containing 20% Tween-80) was intraperitoneally administered 2 or 24 h before the PET probe injection.
as §2, §3, §4, §5

Data set [6] has as its system liver. Kind of data set: biochemical parameters for hepatic function in serum after acetaminophen. It counts as in vivo, rat. As for the experimental part: (§6) In a separate study from PET measurements, physiological and biochemical assessments were conducted on four animals for each time and dosing condition. Body weight measurements, urine collection, and blood sampling were conducted 2, 6, and 24 h after the administration of acetaminophen. A rat was placed in a metabolic cage on a 12/12-h light/dark cycle, and urine samples were collected for 24 h and centrifuged to remove suspended material, and the supernatants were analyzed to measure total protein, creatinine, and N-acetyl-β-D-glucosaminidase (NAG) using a biochemical automatic analyzer (JCA-BM6010, JEOL Ltd., Tokyo, Japan). Blood sample was collected from the tail vein, and the serum fraction separated from the blood was used in assay of alanine aminotransferase (ALT), aspartate aminotransferase (AST), lactate dehydrogenase (LDH), bilirubin (BIL), and BUN using a biochemical automatic analyzer (JCA-BM6010, JEOL Ltd., Tokyo, Japan).

For data set [7], the system named is kidney. Kind of data set: biochemical parameters for renal function in urine and serum after acetaminophen. It counts as in vivo, rat. As for the experimental part: as §6
Data set [8] deals with liver. Set-up: method as in PMID 26102222. As to conditions: acetaminophen 300 mg/kg, mice; cited from earlier work.
Data set [9] deals with MC-I. On the set-up: method as in PMID 24470629. The following applies: rotenone 0.1 mg/kg; cited from earlier work.
The subject of data set [10] is mitochondrial complex I (MC-I). Kind of data set: binding specificity of 18F-BCPP-BF to MC-I: pre-administration of rotenone, PET. Type of data set: in vivo, rat. As to conditions: rotenone 0.1 mg/kg/h i.v. infusion for 1 h before probe. The protocol: as §1, §2, §3, §4, §5
Where [11] appears, read: control rat, 15 to 30 min post-injection, i.v.
The mark [12] stands for this setting: control rat, 70 to 90 min post-injection, i.v.
Where [13] appears, read: 24 h after acetaminophen 300 mg/kg i.p., p < 0.001.
Setting [14] is: 24 h after acetaminophen 300 mg/kg i.p., p = 0.034.
[15] abbreviates: 24 h after acetaminophen 300 mg/kg i.p., p = 0.027.

`CC(C)(C)n1ncc(OCc2ccc(OCCOCCO[11CH3])nc2)c(Cl)c1=O` [^11C-BCPP-EM, 2-tert-butyl-4-chloro-5-{6-[2-(2-^11C-methoxy-ethoxy)-ethoxy]-pyridin-3-ylmethoxy}-2H-pyridazin-3-one]: in data set [1], the logD7.4 is on record as 2.87.
In general, Ki refers to the dissociation constant of the complex between target and ligand, obtained from inhibition or displacement. Regarding `COCCOCCOc1ccc(COc2cnn(C(C)(C)C)c(=O)c2Cl)cn1` [^11C-BCPP-EM, 2-tert-butyl-4-chloro-5-{6-[2-(2-^11C-methoxy-ethoxy)-ethoxy]-pyridin-3-ylmethoxy}-2H-pyridazin-3-one], the Ki in data set [2] was 4.7 nM.
As for `CC(C)(C)n1ncc(OCc2ccc(OCCCCF)nc2)c(Cl)c1=O` [^18F-BCPP-BF, 2-tert-butyl-4-chloro-5-[6-(4-^18F-fluorobutoxy)-pyridin-3-ylmethoxy]-2H-pyridazin-3-one], the inhibition constant (Ki) in data set [2] was 0.7 nM.
For the compound `CC(C)(C)n1ncc(OCc2ccc(OCCCC[18F])nc2)c(Cl)c1=O` [^18F-BCPP-BF, 2-tert-butyl-4-chloro-5-[6-(4-^18F-fluorobutoxy)-pyridin-3-ylmethoxy]-2H-pyridazin-3-one], the “accumulation of radioactivity in bone (defluorination)” value in data set [3] is “slightly greater accumulation of radioactivity in bone with time”. Moreover, in data set [4] (setting [11]), the “averaged SUV, liver” value was determined as 4.40 ± 0.39; the “averaged SUV, renal cortex” value was 8.12 ± 0.69; the “averaged SUV, renal pelvis” value stood at 4.17 ± 0.51. The “averaged SUV, bladder” value in data set [4] (control rat, 15 to 30 min post-injection, i.v., data not shown) stood at 0.88 ± 0.42. Also, in data set [4] (setting [12]), the “averaged SUV, liver” value worked out at 3.75 ± 0.38; the “averaged SUV, renal cortex” value was determined as 6.29 ± 0.30; the “averaged SUV, renal pelvis” value came to 4.37 ± 0.64. In data set [4] (rat renal cortex and liver, PET TACs), the “type of kinetics of the time activity curves” value is recorded as “reversible-type kinetics”. Also, the logD7.4 in data set [1] is 4.27.
For `CC(C)(C)n1ncc(OCc2ccc(OCCOCCF)nc2)c(Cl)c1=O` [^18F-BCPP-EF, 2-tert-butyl-4-chloro-5-{6-[2-(2-^18F-fluoroethoxy)-ethoxy]-pyridin-3-ylmethoxy}-2H-pyridazin-3-one], the Ki in data set [2] is 2.31 nM.
With `CC(C)(C)n1ncc(OCc2ccc(OCCOCC[18F])nc2)c(Cl)c1=O` [^18F-BCPP-EF, 2-tert-butyl-4-chloro-5-{6-[2-(2-^18F-fluoroethoxy)-ethoxy]-pyridin-3-ylmethoxy}-2H-pyridazin-3-one], the logD7.4 in data set [1] is 3.03.
Consider `CC(=O)Nc1ccc(O)cc1` [acetaminophen], for which the “18F-BCPP-BF uptake by the liver vs. control” value is 72.1% in data set [5] (acetaminophen 100 mg/kg i.p., 2 h after, SUV 15 to 30 min, p = 0.017); 81.4% in [5] (acetaminophen 100 mg/kg i.p., 24 h after, SUV 15 to 30 min, p = 0.049); 53.9% in data set [5] (acetaminophen 300 mg/kg i.p., 2 h after, SUV 15 to 30 min, p = 0.003); 80.5% in data set [5] (acetaminophen 300 mg/kg i.p., 24 h after, SUV 15 to 30 min, p = 0.002). The “18F-BCPP-BF uptake in the renal cortex vs. control” value in data set [5] (acetaminophen 100 mg/kg i.p., 24 h after, SUV 15 to 30 min, p = 0.038) was determined as 83.4%; in [5] (acetaminophen 300 mg/kg i.p., 2 h after, SUV 15 to 30 min, p = 0.025), 72.1%; in [5] (acetaminophen 300 mg/kg i.p., 24 h after, SUV 15 to 30 min, p = 0.009) it was 79.5%. Further, the “18F-BCPP-BF uptake in the renal pelvis vs. control” value in data set [5] (acetaminophen 300 mg/kg i.p., 2 h after, SUV 15 to 30 min, p = 0.027) came out at 56.6%. Besides, the “reduction of MC-I activity in the liver assessed using 18F-BCPP-BF” value in data set [5] (acetaminophen 300 mg/kg in rats) is on record as “approximately 50%”. For the same compound, in data set [5] (acetaminophen i.p., 24 h after, SUV 15 to 30 min), the “18F-BCPP-BF uptake in the renal pelvis” value is given as “no significant reduction”. Moreover, in data set [6] (setting [13]), the “AST vs. the corresponding 100 mg/kg” value turned out to be 383.0%. Also, in data set [6] (setting [13]), the “AST vs. the corresponding control” value came out at 322.3%. In addition, the “ALT vs. the corresponding control” value in data set [6] (24 h after acetaminophen 300 mg/kg i.p., p = 0.001) came to 207.4%. The “BIL vs. the corresponding 100 mg/kg” value in data set [6] (setting [14]) is on record as 233.3%. Besides, in data set [6] (setting [14]), the “BIL vs. the corresponding control” value was found to be 186.2%. Besides, in data set [6] (acetaminophen 100 mg/kg i.p.), the ALT level change result is “did not show significant changes”. Further, the AST level change result in data set [6] (acetaminophen 100 mg/kg i.p.) was “did not show significant changes”. Also, the BIL level change result in [6] (acetaminophen 100 mg/kg i.p.) was “did not show significant changes”. The “LDH change from the control condition” value in data set [6] (acetaminophen 100 or 300 mg/kg i.p., 2, 6 and 24 h) is reported as “did not show any significant alterations”. Moreover, the “urinary protein excretion vs. 100 mg/kg” value came to 46.9% in [7] (6 h after acetaminophen 300 mg/kg i.p., p = 0.017) and 143.0% in data set [7] (setting [15]). The “urinary protein excretion vs. control” value worked out at 56.4% in [7] (6 h after acetaminophen 300 mg/kg i.p., p = 0.028) and 128.9% in [7] (setting [15]). The BUN change entry in data set [7] (serum, acetaminophen treatment, at any time) is “did not show any significant alterations”. In addition, the “creatinine level vs. control” value in data set [7] (urine, 6 h after acetaminophen 300 mg/kg i.p., p < 0.001) is 24.3%. Besides, the “creatinine level vs. 100 mg/kg” value in data set [7] (urine, 6 h after acetaminophen 300 mg/kg i.p., p = 0.002) came out at 23.4%. The same compound yielded an NAG vs. control in data set [7] (urine, 24 h after acetaminophen 300 mg/kg i.p., p = 0.011) of 161.8%. The “NAG vs. 100 mg/kg” value in data set [7] (urine, 24 h after acetaminophen 300 mg/kg i.p., p = 0.027) amounted to 164.8%. Further, the NAG change result in data set [7] (urine, acetaminophen 100 mg/kg i.p.) was “did not show any significant changes”. In addition, in data set [8], the “reduction in 18F-2-DFR uptake by the liver” value is “approximately 20%”.
In the case of `C=C(C)[C@H]1Cc2c(ccc3c2O[C@@H]2COc4cc(OC)c(OC)cc4[C@@H]2C3=O)O1` [rotenone], in [9], the “inhibition of the binding of MC-I PET probes to MC-I in the heart and brain” value is “fully inhibited”. Further, in [10] (averaged SUV 15 to 30 min, p = 0.027), the “18F-BCPP-BF uptake level in renal cortex vs. control” value was found to be 64.2%. For the same compound, the “18F-BCPP-BF uptake level in liver vs. control” value in data set [10] (averaged SUV 15 to 30 min, p = 0.038) is 76.9%. Further, the “inhibition degree of 18F-BCPP-BF uptake in renal cortex, of control” value in [10] (averaged SUV 70 to 90 min, p = 0.006) worked out at 52.2%.
